Assay results reported in ChEMBL document CHEMBL4616595, “Targeted suppression of metastasis regulatory transcription factor SOX2 in various cancer cell lines using a sequence-specific designer pyrrole-imidazole polyamide” (Bioorg Med Chem, 2020).
The source made the active and inactive calls. No cut-off for these calls is given here.

Assays:
MKN-45 [1] = test: Cell cycle arrest in human MKN45 cells assessed as reduction in accumulation at G2/M phase at 2 uM to 5 uM after 48 hrs by propidium iodide staining based flow cytometry analysis; format: functional
MCF7 [2] = test: Cell cycle arrest in human MCF7 cells assessed as reduction in accumulation at G2/M phase at 2 uM to 5 uM after 48 hrs by propidium iodide staining based flow cytometry analysis; format: functional
MKN-45 [3] = test: Cell cycle arrest in human MKN45 cells assessed as reduction in accumulation at S phase at 2 uM to 5 uM after 48 hrs by propidium iodide staining based flow cytometry analysis; format: functional
SW-620 [4] = test: Cell cycle arrest in human SW620 cells assessed as reduction in accumulation at G2/M phase at 2 uM to 5 uM after 48 hrs by propidium iodide staining based flow cytometry analysis; format: functional
SOX2 promoter DNA [5] = test: Binding affinity to SOX2 promoter 5'-CTTTGTT-3' DNA in human SW620 cells assessed as up regulation of CDH1 mRNA expression at 2 uM incubated for 48 hrs by qRT-PCR analysis; format: cell-based; details: SW-620
NHDF = test: Cytotoxicity against HDF cells assessed as effect on cell viability measured after 48 hrs by MTT assay; format: cell-based; details: human
MKN-45 [6] = test: Antiproliferative activity against human MKN45 cells assessed as inhibition of cell proliferation incubated for 48 hrs by [3H]thymidine incorporation based scintillation counting method; format: functional
SW-620 [7] = test: Up regulation of TP73 mRNA expression in human SW620 cells incubated for 48 hrs by qRT-PCR analysis; format: functional, cell-based
SOX2 promoter DNA [8] = test: Binding affinity to SOX2 promoter 5'-CTTTGTT-3' DNA in human SW620 cells assessed as down regulation of GLI3 gene expression at 2 uM incubated for 48 hrs by Cy3-labelled cRNA-based microarray analysis; format: cell-based; details: SW-620
MKN-45 [9] = test: Cell cycle arrest in human MKN45 cells assessed as increase in accumulation at sub-G1/G1 phase at 2 uM to 5 uM after 48 hrs by propidium iodide staining based flow cytometry analysis; format: functional
U2OS [10] = test: Cytotoxicity against human U2OS cells assessed as reduction in cell viability incubated for 48 hrs by MTT assay; format: functional, cell-based
SOX2 promoter DNA [11] = test: Binding affinity to SOX2 promoter 5'-CTTTGTT-3' DNA in human SW620 cells assessed as down regulation of NFKB1 mRNA expression at 2 uM incubated for 48 hrs by qRT-PCR analysis; format: cell-based; details: SW-620
SOX2 promoter DNA [12] = test: Binding affinity to SOX2 promoter 5'-CTTTGTT-3' DNA in human SW620 cells assessed as downregulation S100A4 mRNA expression incubated for 48 hrs by qRT-PCR analysis; format: cell-based; details: SW-620
SW-620 [13] = test: Up regulation of FAS mRNA expression in human SW620 cells incubated for 48 hrs by qRT-PCR analysis; format: functional, cell-based
SOX2 promoter DNA [14] = test: Binding affinity to SOX2 promoter 5'-CTTTGTT-3' DNA in human SW620 cells assessed as downregulation of SNAIL2 mRNA expression at 2 uM incubated for 48 hrs by qRT-PCR analysis; format: cell-based; details: SW-620
MCF7 [15] = test: Cell cycle arrest in human MCF7 cells assessed as increase in accumulation at sub-G1/G1 phase at 2 uM to 5 uM after 48 hrs by propidium iodide staining based flow cytometry analysis; format: functional
SOX2 promoter DNA [16] = test: Binding affinity to SOX2 promoter 5'-CTTTGTT-3' DNA in human SW620 cells assessed as down regulation of JAG1 mRNA expression at 2 uM incubated for 48 hrs by qRT-PCR analysis; format: cell-based; details: SW-620
MCF7 [17] = test: Cytotoxicity against human MCF7 cells assessed as reduction in cell viability incubated for 48 hrs by MTT assay; format: functional, cell-based
SW-620 [18] = test: Cell cycle arrest in human SW620 cells assessed as reduction in accumulation at S phase at 2 uM to 5 uM after 48 hrs by propidium iodide staining based flow cytometry analysis; format: functional
SOX2 promoter DNA [19] = test: Binding affinity to SOX2 promoter 5'-CTTTGTT-3' DNA in human SW620 cells assessed as upregulation of CDKN2B mRNA expression incubated for 48 hrs by qRT-PCR analysis; format: cell-based; details: SW-620
SOX2 promoter DNA [20] = test: Binding affinity to SOX2 promoter 5'-CTTTGTT-3' DNA in human SW620 cells assessed as downregulation WNT2B mRNA expression incubated for 48 hrs by qRT-PCR analysis; format: cell-based; details: SW-620
SW-620 [21] = test: Up regulation of p27kip1 mRNA expression in human SW620 cells incubated for 48 hrs by qRT-PCR analysis; format: functional, cell-based
SOX2 promoter DNA [22] = test: Binding affinity to SOX2 promoter 5'-CTTTGTT-3' DNA in human SW620 cells assessed as down regulation of ALDH1A1 gene expression at 2 uM incubated for 48 hrs by Cy3-labelled cRNA-based microarray analysis; format: cell-based; details: SW-620
SOX2 promoter DNA [23] = test: Binding affinity to SOX2 promoter 5'-CTTTGTT-3' DNA in human SW620 cells assessed as down regulation of VIM mRNA expression at 2 uM incubated for 48 hrs by qRT-PCR analysis; format: cell-based; details: SW-620
SOX2 promoter DNA [24] = test: Binding affinity to SOX2 promoter 5'-CTTTGTT-3' DNA in human SW620 cells assessed as upregulation of GSK3-beta mRNA expression incubated for 48 hrs by qRT-PCR analysis; format: cell-based; details: SW-620
SOX2 promoter DNA [25] = test: Binding affinity to SOX2 promoter 5'-CTTTGTT-3' DNA in human MKN45 cells assessed as reduction in SOX2 mRNA expression incubated for 48 hrs by qRT-PCR analysis; format: cell-based; details: MKN-45
SOX2 promoter DNA [26] = test: Binding affinity to SOX2 promoter 5'-CTTTGTT-3' DNA in human SW620 cells assessed as down regulation of stemness associated KLF4 mRNA expression at 2 uM incubated for 48 hrs by qRT-PCR analysis; format: cell-based; details: SW-620
SOX2 promoter DNA [27] = test: Binding affinity to SOX2 promoter 5'-CTTTGTT-3' DNA in human SW620 cells assessed as down regulation of Cyclin D1 mRNA expression at 2 uM incubated for 48 hrs by qRT-PCR analysis; format: cell-based; details: SW-620
SOX2 promoter DNA [28] = test: Binding affinity to SOX2 promoter 5'-CTTTGTT-3' DNA in human SW620 cells assessed as downregulation SALL4 mRNA expression incubated for 48 hrs by qRT-PCR analysis; format: cell-based; details: SW-620
SOX2 promoter DNA [29] = test: Binding affinity to SOX2 promoter 5'-CTTTGTT-3' DNA in human SW620 cells assessed as down regulation of stemness associated BMP-4 mRNA expression at 2 uM incubated for 48 hrs by qRT-PCR analysis; format: cell-based; details: SW-620
MCF7 [30] = test: Antiproliferative activity against human MCF7 cells assessed as inhibition of cell proliferation incubated for 48 hrs by [3H]thymidine incorporation based scintillation counting method; format: functional
SOX2 promoter DNA [31] = test: Binding affinity to SOX2 promoter 5'-CTTTGTT-3' DNA in human SW620 cells assessed as downregulation DVL2 mRNA expression incubated for 48 hrs by qRT-PCR analysis; format: cell-based; details: SW-620
U2OS [32] = test: Antiproliferative activity against human U2OS cells assessed as inhibition of cell proliferation incubated for 48 hrs by [3H]thymidine incorporation based scintillation counting method; format: functional
SOX2 promoter DNA [33] = test: Binding affinity to SOX2 promoter 5'-CTTTGTT-3' DNA in human U2OS cells assessed as reduction in SOX2 protein level incubated for 48 hrs by immunostaining based FACS analysis; format: cell-based

## CC(=O)Nc1cc(C(=O)Nc2cc(C(=O)Nc3cc(C(=O)NCCC(=O)Nc4cn(C)c(C(=O)Nc5cc(C(=O)NCCCC(=O)Nc6cc(C(=O)Nc7cc(C(=O)NCCC(=O)Nc8cc(C(=O)Nc9cc(C(=O)Nc%10cn(C)c(C(=O)NCCCN(C)C)n%10)n(C)c9)n(C)c8)n(C)c7)n(C)c6)n(C)c5)n4)n(C)c3)n(C)c2)n(C)c1
MKN-45 [1]
  Activity: Active
MCF7 [2]
  Activity: Active
MKN-45 [3]
  Activity: Active
SW-620 [4]
  Activity: Active
SOX2 promoter DNA [5]
  Activity: Active
NHDF
  Activity: Non-Toxic
MKN-45 [6]
  inhibition: Dose-dependent effect
SW-620 [7]
  Activity: Active
SOX2 promoter DNA [8]
  Activity: Active
MKN-45 [9]
  Activity: Active
U2OS [10]
  Activity: Dose-dependent effect
SOX2 promoter DNA [11]
  Activity: Active
SOX2 promoter DNA [12]
  Activity: Active
SW-620 [13]
  Activity: Active
SOX2 promoter DNA [14]
  Activity: Active
MCF7 [15]
  Activity: Active
SOX2 promoter DNA [16]
  Activity: Active
MCF7 [17]
  Activity: Dose-dependent effect
SW-620 [18]
  Activity: Active
SOX2 promoter DNA [19]
  Activity: Active
SOX2 promoter DNA [20]
  Activity: Active
SW-620 [21]
  Activity: Active
SOX2 promoter DNA [22]
  Activity: Active
SOX2 promoter DNA [23]
  Activity: Active
SOX2 promoter DNA [24]
  Activity: Active
SOX2 promoter DNA [25]
  Activity: Active
SOX2 promoter DNA [26]
  Activity: Active
SOX2 promoter DNA [27]
  Activity: Active
SOX2 promoter DNA [28]
  Activity: Active
SOX2 promoter DNA [29]
  Activity: Active
MCF7 [30]
  inhibition: Dose-dependent effect
SOX2 promoter DNA [31]
  Activity: Active
U2OS [32]
  inhibition: Dose-dependent effect
SOX2 promoter DNA [33]
  Activity: Dose-dependent effect
